Measurements: patent publication US9708307B2, “Heterocyclic acetamide compound” (ASTELLAS PHARMA INC., priority 2013, dated 2017)

Target: T1, dopamine D1 receptor (Homo sapiens, UniProt P21728)
T1 construct: expressed in transfected cells
Test: Evaluation of positive allosteric modulating activity: leftward shift of dopamine dose-response curve (cAMP) in CHO cells stably expressing human dopamine D1 receptor
Type: cell-based
Conditions: extrapolated by linear function from dopamine EC50 at each test drug concentration
Experimental: The composition of a buffer used in Test Example 1 is as follows.
Buffer for assay=αMEM containing 1 μM IBMX.
Buffer for dilution=αMEM containing 1 μM IBMX and 0.8 mM ascorbic acid.
The positive allosteric modulating activity of the compound of the present invention was evaluated according to the ratio of the leftward shift in a dopamine dose-response curve.
The leftward shift means that a dose-response curve of dopamine, in which the logarithm of a dose is on the horizontal axis (X-axis) and a response (cAMP concentration in this test) is on the vertical axis (Y-axis), shifts in parallel in the negative direction of the X-axis by the administration of a positive allosteric modulator.
The coding sequences of a dopamine D1 receptor in a human (Accession No.: NM_000794.3) were amplified by PCR and subcloned into a pEF-BOS vector. The resulting construct was transfected to CHO (-dhrf) cells (ATCC No.: CRL-9096) using Lipofectamine 2000 (Invitrogen Inc.). The clones stably transfected were obtained by selection using 100 nM MTX. The obtained cell clones were maintained in αMEM containing 10% FBS, 1 mg/mL penicillin, and 1 U/streptomycin.
Dose-Response Curve of Dopamine Using test drug was drawn on the basis of the following experiments.
A buffer for assay of a test drug was serially diluted (concentrations 0.48 μM to 40 μM, 3-fold dilutions). The serially diluted solutions of the test drug were dispensed in each portion of 2.5 μL to black 384-well plates (Becton Dickinson, Inc.).
CHO cells stably expressing a dopamine D receptor of a human were seeded in each portion of 5 μL in each well at a density of 5000 cells/well, centrifuged in a centrifuge for a plate (05PR-22, Hitachi Co., Ltd., 800 rpm), and then allowed to stand for 10 minutes.
Serially diluted solutions of dopamine were prepared from a DMSO solution of dopamine (Sigma Co.) with a buffer for dilutions (concentrations 0.018 μM to 13.2 μM, 3-fold dilutions), and the serially diluted solutions of dopamine were dispensed in portions of 2.5 μL to each well of a plate.
The plate was stirred using a plate shaker (Sanko Junyaku (mx-5)) and then allowed to stand at room temperature for 20 minutes (final concentration: test drug 0 μM to 10 μM, dopamine 0 μM to 3.3 μM, 3-fold dilutions).
cAMP was quantified using a cAMP femto 2 kit (Sceti Medical Labo K. K.) by the method described in the materials appended in the kit. A kit reagent cAMP-d2 solution and a kit reagent Anti cAMP-Cryptate solution were added in each portion of 5 μL to each well of the above-described plate, and the reaction was stopped. After incubating the plate at room temperature for 1 hour, the fluorescent intensity was measured (an excitation wavelength of 320 nm and a fluorescent wavelength of 665 nm) using a plate reader (2103 Multilabel Reader (registered trademark EnVision), PerkinElmer, Inc.).
As a control group, a well without addition of dopamine was taken as 0% and a well with a dopamine final concentration of 3.3 μM was taken as 100%.
The dose-response curve of dopamine was drawn on the basis of the experiment carried out in the same manner as in (1) without the addition of a test drug.
In order to quantitatively compare the activity of the test drug, the activity was evaluated by EC50 2-fold potentiation.
In the present specification, “EC50 2-fold potentiation” is the test drug concentrations that enhanced the EC50 two-fold in the dose-response curve (2) of dopamine.
From the dose-response curve (1) of dopamine in the presence of the test drug at each concentration, the EC50 at the test drug concentration was obtained. From the correlation between the concentration of the test drug and the EC50, EC50 2-fold potentiation was calculated by extrapolation by a linear function (straight line).
Further, the EC50 value was calculated from the dose-response curves (1) and (2) of dopamine, using non-linear regression analysis. […]

T1 sequence (P21728 whole entry): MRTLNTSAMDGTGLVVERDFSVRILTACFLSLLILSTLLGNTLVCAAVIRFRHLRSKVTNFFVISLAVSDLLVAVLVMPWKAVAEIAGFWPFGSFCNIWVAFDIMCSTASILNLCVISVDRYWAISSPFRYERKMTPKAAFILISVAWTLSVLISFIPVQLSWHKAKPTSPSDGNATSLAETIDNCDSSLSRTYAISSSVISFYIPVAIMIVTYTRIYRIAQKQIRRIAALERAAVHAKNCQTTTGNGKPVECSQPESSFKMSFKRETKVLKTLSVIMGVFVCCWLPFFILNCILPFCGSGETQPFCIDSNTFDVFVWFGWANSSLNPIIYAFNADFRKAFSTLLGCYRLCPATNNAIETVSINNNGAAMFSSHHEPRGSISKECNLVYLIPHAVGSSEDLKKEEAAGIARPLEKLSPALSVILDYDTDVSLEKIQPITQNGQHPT

SMILES | Data 1: EC50 2-fold potentiation (test drug concentration that enhanced the dopamine EC50 two-fold) [nM]
CN(Cc1nc2c(Cl)cccc2[nH]1)C(=O)Cn1c(=O)oc2ccc(Cl)cc21 [Example 34] | 990
CN(Cc1nc2cc(Cl)c(Cl)cc2n1CCO)C(=O)Cn1c(=O)oc2ccc(Cl)cc21.Cl [Example 7, 2-(5-chloro-2-oxo-1,3-benzoxazol-3 (2H)-yl)-N-{[5,6-dichloro-1-(2-hydroxyethyl)-1H-benzimidazol-2-yl]methyl}-N-methylacetamide hydrochloride] | 100
CN(Cc1nc2cc(Cl)ccc2[nH]1)C(=O)Cn1c(=O)oc2ccc(C(F)(F)F)cc21 [Example 25] | 450
CN(Cc1nc2cc(Cl)ccc2[nH]1)C(=O)Cn1c(=O)oc2ccc(Cl)cc21.Cl [Example 12] | 1000
CN(Cc1nc2cc(C(F)(F)F)ccc2[nH]1)C(=O)Cn1c(=O)oc2ccc(C(F)(F)F)c(F)c21 [Example 27] | 460
Cc1cc2nc(CN(C)C(=O)Cn3c(=O)oc4ccc(Cl)cc43)[nH]c2cc1Cl [Example 30] | 270
CN(Cc1nc2cc(C(F)(F)F)ccc2[nH]1)C(=O)Cn1c(=O)oc2ccc(Cl)cc21.Cl [Example 1, 2-(5-chloro-2-oxo-1,3-benzoxazol-3 (2H)-yl)-N-methyl-N-{[5-(trifluoromethyl)-1H-benzimidazol-2-yl]methyl}acetamide hydrochloride] | 460
CN(Cc1nc2cc(Cl)c(F)cc2[nH]1)C(=O)Cn1c(=O)oc2ccc(Cl)cc21.Cl [Example 14] | 1700
COc1cc2[nH]c(CN(C)C(=O)Cn3c(=O)oc4ccc(Cl)cc43)nc2cc1Br.Cl [Example 15] | 740
CN(Cc1nc2c(C(F)(F)F)cccc2[nH]1)C(=O)Cn1c(=O)oc2ccc(Cl)cc21.Cl [Example 16] | 620
CN(Cc1nc2cc(Cl)c(Cl)cc2n1CC(C)(C)O)C(=O)Cn1c(=O)oc2ccc(Cl)cc21 [Example 37] | 300
CN(Cc1nc2c(C(F)(F)F)cccc2[nH]1)C(=O)Cn1c(=O)oc2ccc(C(F)(F)F)cc21 [Example 39] | 400
CN(Cc1nc2cc(OC(F)(F)F)ccc2[nH]1)C(=O)Cn1c(=O)oc2ccc(Cl)cc21 [Example 31] | 1100
CN(Cc1nc2cc(C(F)(F)F)ccc2[nH]1)C(=O)Cn1c(=O)oc2ccc(Cl)c(F)c21 [Example 17] | 470
CN(Cc1nc2cc(Cl)ccc2[nH]1)C(=O)Cn1c(=O)oc2ccc(OC(F)(F)F)cc21 [Example 26] | 370
CN(Cc1nc2cc(C3CC3)ccc2[nH]1)C(=O)Cn1c(=O)oc2ccc(C(F)(F)F)cc21 [Example 22] | 390
CN(Cc1nc2cc(Br)ccc2[nH]1)C(=O)Cn1c(=O)oc2ccc(Cl)cc21 [Example 20] | 440

Tested on: ddY male mice
Test: Y-maze test: improvement effect on cognitive impairment caused by MK-801 (spontaneous alternation behavior)
Type: in vivo
Conditions: oral, once, one hour before test, MK-801 0.15 mg/kg i.p. 20 minutes before
Experimental: The improvement effect of the compound of the present invention on cognitive impairment was evaluated using a Y-maze test which is an experiment system of alternation behavior.
As a Y-maze, a maze, in which three tracks having a length of one arm of 40 cm, a height of a wall of 13 cm, a width of a bottom of 3 cm, and a width of a top of 10 cm are each joined in the Y shape at a degree of 120, was used. […]
The above-described mice were allowed to explore freely for 8 minutes after being placed at an end of one track in the Y-maze, and the track and the sequence in which the mice entered were recorded. The number of times the mice entered within the measurement time was counted, and taken as a total entry number. Among these, a combination in which the mice successively entered different three tracks (for example, when taking three arms as a, b, and c, respectively, a case where the order of the arm that entered was “abccbacab” was counted as 4, inclusive of overlapping) was considered as a spontaneous alternation behavior number. The spontaneous alternation behavior rate was calculated by the following calculation and used as an index for a spontaneous alternation behavior: Spontaneous alternation behavior rate=spontaneous alternation behavior number/(total number of entries−2)×100 […]
The measured values were expressed in average values±standard errors for each group. […]

SMILES | Data 2: effective concentration (improved the spontaneous alternation behavior) [mg/kg]
CN(Cc1nc2cc(C(F)(F)F)ccc2[nH]1)C(=O)Cn1c(=O)oc2ccc(Cl)cc21.Cl [Example 1, 2-(5-chloro-2-oxo-1,3-benzoxazol-3 (2H)-yl)-N-methyl-N-{[5-(trifluoromethyl)-1H-benzimidazol-2-yl]methyl}acetamide hydrochloride] | 0.1
CN(Cc1nc2cc(Br)ccc2[nH]1)C(=O)Cn1c(=O)oc2ccc(Cl)cc21 [Example 20] | 1.0
